Where a name gives a salt, the structure may show the parent alone.
Experiments:
[1] = system: Hsp90/Cdc37; experiment: FIMM screening in split Renilla luciferase assay with hypomorphic NRL-Hsp90 construct, 20 μM; type: biochemical; settings: for normalized RLU (FIMM Screening-1) / normalized RLU (FIMM Screening-2, scaffold based): DMSO = 1.00; for Average RLU (FIMM Screening-1) / Average RLU (FIMM Screening-2, scaffold based): mean of 3 wells; for Average RLU (FIMM Screening-1): DMSO 50019; for Average RLU (FIMM Screening-2, scaffold based): DMSO 51006
Experimental: (§1) In the second in silico screening of the FIMM database, we employed the four identified chemical scaffolds (Figure S2B) for the visual inspection of the FIMM compound library. […] All of the purchased compounds were validated in vitro at 20 μM using the split Renilla luciferase assay.
(§2) The Hsp90/Cdc37 split Renilla luciferase assay using the full length Hsp90 for the compound screening was described previously. […] After 48 h, the cells were trypsinized and washed with PBS. The harvested cells were lysed in 1 mL of the 1x lysis buffer provided in the Renilla Luciferase Reporter Assay System Kit from Promega (cat. E2820), and were incubated on ice for 10 min. The cell lysates were then cleared by centrifugation at 13,000× g for 1 min. […] After this, the screening/test compounds or DMSO—as indicated—were added to each well. In total, 5 µL NRL-Hsp90- or NRL-N-Hsp90-lysate was added to each well, one row at a time. Subsequently, the plate was incubated for 5 min at room temperature (RT). […] Just before the reading, 20 µL assay buffer containing 2× Renilla luciferase substrate (coelenterazine) was added. For the FIMM screening, sample wells were read on a PHERAstar plate reader (BMG LABTECH) at a gain level of 4000, after 10 s shaking, using a hypomorph of NRL-Hsp90. For the subsequent validations of the compounds, sample wells with the above-described assay constructs were read using a synergy H1 Hybrid Multi-Mode reader (BioTek) in the luminescence detection mode, as described previously in detail.

[2] = biological target: T1, Hsp90α (N-terminal) (Homo sapiens, UniProt P07900); experiment: Hsp90 N-terminal ATP-binding site competition assay (FITC-geldanamycin fluorescence polarization); settings: 20 μM compound
T1 construct: purchased BPS Bioscience 50298
Experimental: The reaction was initiated by adding 35 ng/μL purified recombinant Hsp90α, and was incubated at RT with slow shaking for 2 h. All of the reactions were performed in a black, low binding NUNC microtiter plate, included in the kit, and the total reaction volume was 50 μL. The enzyme control was measured without the test compound, and the enzyme background control was measured without the test compound or Hsp90α. […] All of the controls and the blank contained 10% DMSO, as did all of the samples of the test compounds. All of the samples were analyzed as duplicates. […] The blank value was subtracted from all of the other values, and the fluorescence polarization was determined as:(1) mP = ((III − I⊥)/(III+ I⊥)) × 1000 where III is the intensity of the parallel, and I┴ the intensity of the perpendicular polarized light.

[3] = biological target: T2, Hsp90/Cdc37 (Homo sapiens, UniProt P07900); experiment: Hsp90/Cdc37 split Renilla luciferase assay, full length Hsp90 (cell lysate; IC50 and 20 μM validation); type: biochemical; settings: for normalized RLU / Average RLU: MolPort Screening-3, tested concentration of drugs 20 μM; for normalized RLU: RLU normalized to DMSO (=1.00); for Average RLU: average of 3 wells (DMSO 248028); for IC50: full length Hsp90, split Renilla luciferase assay, cell lysate
T2 construct: The Hsp90/Cdc37 split Renilla luciferase assay using the full length Hsp90 for the compound screening was described previously; expressed in transfected cells; host or cells: HEK293 EBNA cells, cleared lysates
Experimental: as §1, §2

[4] = system: MIA PaCa-2 cells; experiment: Tumorosphere assay (low adhesion, serum-free 3D spheroid culture); type: cell-based; settings: MIA PaCa-2, 20 μM, 72 h
Experimental: (§3) Per well, 2000 cells were seeded in flat bottom 96-well suspension culture plates (cat. no. 655185, Cellstar, Greiner Bio-One) in 100 µL DMEM or RPMI media containing 1× B27 (cat. no. 17504044, Gibco, Thermo Fisher Scientific), 25 ng/mL EGF (cat. no. E9644, Sigma-Aldrich), and 25 ng/mL FGF (cat. no. RP-8628, Thermo Fisher Scientific), 20% MethoCult H4100 (cat. no. 04100, […] Technologies). After 2 days, 50 µL media containing 0.3% DMSO or 3× the concentration of the indicated compounds were added to the wells in a 1:2 dilution-series, starting at 100 µM. After 72 h of treatment, 10% (v/v) alamarBlue reagent (cat. no. DAL1100, Thermo Fisher Scientific) was added to each well. Then, the fluorescence intensity (excitation 560 nm and emission 590 nm) was measured after 4 h using a H1 Hybrid Multi-Mode reader (BioTek).

[5] = system: MDA-MB-231 cells; experiment: as above; type: cell-based; settings: MDA-MB-231, 20 μM, 72 h
Experimental: as §3

[6] = system: HCC-44 cells; experiment: as above; type: cell-based; settings: HCC-44, 20 μM, 72 h
Experimental: as §3

[7] = system: SK-BR-3 cells; experiment: as above; type: cell-based; settings: SK-BR-3, 20 μM, 72 h
Experimental: as §3

[8] = biological target: T3, N-Hsp90/Cdc37 (Homo sapiens, UniProt P07900); experiment: N-Hsp90/Cdc37 split Renilla luciferase assay (N-terminal Hsp90 fragment, residues 1-223); type: biochemical; settings: cell lysate
T3 construct: only the N-terminal ATP-ase domain of Hsp90 (N-Hsp90, residues 1-223); expressed in transfected cells; host or cells: HEK293 EBNA cells, cleared lysates
Experimental: as §2

| Compound | normalized RLU (FIMM Screening-1) [1] | Average RLU (FIMM Screening-1) [1] [RLU] | IC50 [3] [µM] | IC50 [8] [µM] | further results |
| --- | --- | --- | --- | --- | --- |
| Enamine compound T5807719 [compound 4] | 0.48 | 24009 | – | – | – |
| O=C(CSS(=O)(=O)O)Nc1cccc(C(F)(F)F)c1 [×1625, [({[3-(trifluoromethyl)phenyl]carbamoyl}methyl)sulfanyl]sulfonate] | – | – | 41 ± 8 | 94 ± 3 | competition with FITC-geldanamycin (ATP-pocket binding, polarization signal) [2]: None of these four compounds displaced; normalized RLU [3]: 0.47; Average RLU [3]: 117361 RLU; effect on spheroid formation [4]: did not decrease; effect on spheroid formation [5]: did not decrease; effect on spheroid formation [6]: did not decrease; effect on spheroid formation [7]: did not decrease |
| NC(CSS(=O)(=O)O)=NCCC12CC3CC(CC(O)(C3)C1)C2 [×7648, 1-[2-[(1-amino-2-sulfosulfanylethylidene)amino]ethyl]-3-hydroxyadamantane] | 0.22 | 10978 | 18 ± 2 | 14 ± 4 | – |
| O=C(O[C@@H]1Cc2c(O)cc(O)cc2O[C@@H]1c1cc(O)c(=O)c2c(O)c(O)cc([C@H]3Oc4cc(O)cc(O)c4C[C@H]3O)c2c1)c1cc(O)c(O)c(O)c1 [compound 8, Theaflavin monogallates] | 0.25 | 12688 | 14.1 | – | – |
| O=C(O[C@@H]1Cc2c(O)cc(O)cc2O[C@@H]1c1cc(O)c(O)c(O)c1)c1cc(O)c(O)c(O)c1 [compound 3, Epigallocatechin gallate] | 0.45 | 22619 | 88 ± 23 | 57 ± 14 | – |
| O=C(O[C@@H]1Cc2c(O)cc(O)cc2O[C@@H]1c1cc(O)c(=O)c2c(O)c(O)cc([C@H]3Oc4cc(O)cc(O)c4C[C@H]3OC(=O)c3cc(O)c(O)c(O)c3)c2c1)c1cc(O)c(O)c(O)c1 [compound 2, Theaflavin 3,3-digallate] | 0.12 | 5883 | 75 ± 26 | 81 ± 16 | – |
| N=C(N)SCc1cc(=O)[nH]c(=O)[nH]1 [SC5, {[(2,6-dioxo-1,2,3,6-tetrahydropyrimidin-4-yl)methyl]sulfanyl}methanimidamide] | – | – | – | – | normalized RLU (FIMM Screening-2, scaffold based) [1]: 0.39; Average RLU (FIMM Screening-2, scaffold based) [1]: 19772 RLU |
| O=c1c(O)cc([C@H]2Oc3cc(O)cc(O)c3C[C@H]2O)cc2c([C@H]3Oc4cc(O)cc(O)c4C[C@H]3O)cc(O)c(O)c12 [compound 1, Theaflavin] | 0.25 | 12261 | 29.3 | – | – |
| O=C(O[C@@H]1Cc2c(O)cc(O)cc2O[C@@H]1c1ccc(O)c(O)c1)c1cc(O)c(O)c(O)c1 [M15, (2R,3R)-2-(3,4-dihydroxyphenyl)-5,7-dihydroxy-3,4-dihydro-2H-1-benzopyran-3-yl 3,4,5-trihydroxybenzoate (epicatechin gallate)] | – | – | 28 ± 4 | 4.8 ± 0.7 | normalized RLU [3]: 0.33; Average RLU [3]: 80961 RLU |
| Cc1cc(OCC(=O)Nc2ccccc2C(=O)O)cc(C)c1Cl [×1127, 2-[2-(4-chloro-3,5-dimethylphenoxy)acetamido]benzoic acid] | – | – | 41 ± 10 | 11 ± 1 | normalized RLU (FIMM Screening-2, scaffold based) [1]: 0.66; Average RLU (FIMM Screening-2, scaffold based) [1]: 33660 RLU |
| Cc1ccc(Nc2ccc(C(=O)O)cc2N)cc1 [compound 7, 3-amino-4-(4-toluidino)benzoic acid] | 0.56 | 28120 | 177 ± 31 | 322 ± 50 | – |
| O=c1c(O)c(-c2ccc(O)c(O)c2)oc2cc(O)cc(O)c12 [×1742, 2-(3,4-dihydroxyphenyl)-3,5,7-trihydroxy-4H-chromen-4-one dihydrate (quercetin dihydrate)] | – | – | – | – | competition with FITC-geldanamycin (ATP-pocket binding, polarization signal) [2]: None of these four compounds displaced; normalized RLU [3]: 0.40; Average RLU [3]: 100349 RLU; effect on spheroid formation [4]: significantly increased; effect on spheroid formation [5]: significantly increased; effect on spheroid formation [6]: did not decrease; effect on spheroid formation [7]: did not decrease |
| Enamine compound T6605315 [compound 5] | 0.57 | 28274 | – | – | – |
| O=C(CSc1nc2ccccc2s1)c1ccc(O)c(O)c1 [SC9, 2-(1,3-benzothiazol-2-ylsulfanyl)-1-(3,4-dihydroxyphenyl)ethan-1-one] | – | – | 72 ± 10 | 64 ± 9 | normalized RLU (FIMM Screening-2, scaffold based) [1]: 0.64; Average RLU (FIMM Screening-2, scaffold based) [1]: 32657 RLU |
| O=C(O)c1cc(S(=O)(=O)Nc2cccc(Cl)c2)ccc1O [SC22, 5-[(3-chlorophenyl)sulfamoyl]-2-hydroxybenzoic acid] | – | – | – | – | normalized RLU (FIMM Screening-2, scaffold based) [1]: 0.73; Average RLU (FIMM Screening-2, scaffold based) [1]: 37332 RLU |
| NC[C@@H]1O[C@H](O[C@H]2[C@@H](O)[C@H](O[C@@H]3[C@@H](O)[C@H](N)C[C@H](N)[C@H]3O[C@H]3O[C@H](CO)[C@@H](O)[C@H](O)[C@H]3N)O[C@@H]2CO)[C@H](N)[C@@H](O)[C@@H]1O [compound 6, Paromomycin sulfate, reference compound] | 0.67 | 33633 | – | – | – |

From publication PMC7927014, “Novel Small Molecule Hsp90/Cdc37 Interface Inhibitors Indirectly Target K-Ras-Signaling” (Cancers, 2021)
